How the values were obtained:
Assay in all cases: relative viability (nuclei count vs DMSO), 5 days (fraction); higher = more cells survive
Ponatinib + AZD7762 = compound: Cc1ccc(C(=O)Nc2ccc(CN3CCN(C)CC3)c(C(F)(F)F)c2)cc1C#Cc1cnc2cccnn12 [Ponatinib] + NC(=O)Nc1cc(-c2cccc(F)c2)sc1C(=O)N[C@H]1CCCNC1 [AZD7762] (partner 0.2 µM)
In short: (§1)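 Five library-drug doses in √10 steps were combined with a fixed anchor-drug dose, or a single drug was given alone, by pin tool to lung cancer cell lines in 1536-well plates the day after seeding. Nuclei were stained and counted after 5 days. Relative viability is the nuclei count in treated wells over that in vehicle wells, taken as the median of duplicate plates.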

Pazopanib + Phenformin = compound: Cc1ccc(Nc2nccc(N(C)c3ccc4c(C)n(C)nc4c3)n2)cc1S(N)(=O)=O [Pazopanib] + N=C(N)NC(=N)NCCc1ccccc1 [Phenformin] (partner 250 µM)
In short: as §1

Ponatinib + Tozasertib = compound: Cc1ccc(C(=O)Nc2ccc(CN3CCN(C)CC3)c(C(F)(F)F)c2)cc1C#Cc1cnc2cccnn12 [Ponatinib] + Cc1cc(Nc2cc(N3CCN(C)CC3)nc(Sc3ccc(NC(=O)C4CC4)cc3)n2)n[nH]1 [Tozasertib] (partner 0.1 µM)
In short: as §1

Ponatinib + Pemetrexed = compound: Cc1ccc(C(=O)Nc2ccc(CN3CCN(C)CC3)c(C(F)(F)F)c2)cc1C#Cc1cnc2cccnn12 [Ponatinib] + Nc1nc2[nH]cc(CCc3ccc(C(=O)N[C@@H](CCC(=O)O)C(=O)O)cc3)c2c(=O)[nH]1 [Pemetrexed] (partner 0.2 µM)
In short: as §1

Cell Line	relative viability (Ponatinib + AZD7762; first compound 0.002 µM)	relative viability (Ponatinib + AZD7762; first compound 0.006325 µM)	relative viability (Ponatinib + AZD7762; first compound 0.06325 µM)	relative viability (Ponatinib + AZD7762; first compound 0.2 µM)	relative viability (Pazopanib + Phenformin; first compound 0.01 µM)	relative viability (Pazopanib + Phenformin; first compound 0.03162 µM)	relative viability (Pazopanib + Phenformin; first compound 0.1 µM)	relative viability (Pazopanib + Phenformin; first compound 1 µM)	relative viability (Ponatinib + Tozasertib; first compound 0.002 µM)	relative viability (Ponatinib + Tozasertib; first compound 0.006325 µM)	relative viability (Ponatinib + Tozasertib; first compound 0.06325 µM)	relative viability (Ponatinib + Tozasertib; first compound 0.2 µM)	relative viability (Ponatinib + Pemetrexed; first compound 0.002 µM)	relative viability (Ponatinib + Pemetrexed; first compound 0.006325 µM)	relative viability (Ponatinib + Pemetrexed; first compound 0.06325 µM)	relative viability (Ponatinib + Pemetrexed; first compound 0.2 µM)	relative viability (Pazopanib + Phenformin; first compound 0.3162 µM)
NCI-H358	0.45	0.567	0.509	0.46	0.388	0.384	0.37	0.548	0.0953	0.101	0.0969	0.165	0.168	0.162	0.189	0.174	
NCI-H441	1.18	1.19	1.35	1.14	0.741	0.911	0.811	1.01	0.602	0.529	0.588	0.488	0.266	0.256	0.297	0.215	0.986
NCI-H460	0.478	0.552	0.564	0.576	0.578	0.546	0.525	0.562	0.407	0.526	0.19	0.0908	0.06	0.062	0.0629	0.0632	0.548
NCI-H522	0.664	0.784	0.695	0.819	0.532	0.618	0.71	0.65	0.51	0.543	0.476	0.455	0.753	1.15	1.15	1.13	0.7
NCI-H596	1.08	1.04	0.912	0.632		0.916	0.732	0.963	0.914	0.911	0.734	0.743	0.478	0.467	0.48	0.469	0.879
NCI-H647	0.294	0.381	0.482	0.335	0.483	0.643	0.541	0.615	0.318	0.224	0.288	0.259	0.203	0.193	0.17	0.203	0.663
NCI-H650	0.695	0.92	0.981	0.572	0.42	0.473	0.438	0.444	0.685	0.707	0.712	0.618	0.815	0.965	0.948	0.872	0.466
NCI-H838	0.899	0.935	0.95	0.774	0.548	0.648	0.587	0.753	0.275	0.271	0.286	0.256	0.234	0.249	0.255	0.227	0.647
NCI-H1355	0.696	0.742	0.829	0.717	0.42	0.481	0.406	0.461	0.566	0.542	0.582	0.455	0.983	0.975	1.14	1.07	0.455
NCI-H1395	0.387	0.41	0.371	0.362	0.384	0.441	0.454	0.51	0.636	0.747	0.768	0.701	0.755	0.819	0.871	0.624	0.511
NCI-H1437	1.02	1.07	1.17	1.03	0.355	0.312	0.34	0.338	0.363	0.419	0.411	0.393	0.312	0.294	0.32	0.27	0.303
NCI-H1651	0.336	0.465	0.458	0.509	0.359	0.351	0.343	0.379	0.685	0.662	0.563	0.531	0.558	0.627	0.614	0.588	0.373
NCI-H1666	0.823	0.863	0.889	0.902	0.576	0.581	0.575	0.67	0.707	0.627	0.669	0.548	0.847	0.829	0.928	0.837	0.613
NCI-H1734	0.514	0.516	0.418	0.461	0.353	0.416	0.417	0.418	0.267	0.293	0.217	0.26	0.394	0.399	0.44	0.395	0.495
NCI-H1755	0.409	0.379	0.381	0.362	0.552	0.636	0.673	0.671	0.607	0.59	0.54	0.547	0.402	0.404	0.398	0.466	0.65
NCI-H1793	0.406	0.466	0.282	0.178		0.419	0.394	0.421	0.357	0.388	0.29	0.204	0.792	0.914	0.774	0.671	0.425

Source: the supplement of paper PMC10307832
